The IC50 is the concentration that gives 50% inhibition.

The assay deals with PD-1/PD-L1 (Homo sapiens, UniProt Q9NZQ7). Put plainly: TR-FRET PD-1/PD-L1 binding inhibition at the molecular level (free proteins). To be noted: Tag1-PD-L1 and Tag2-PD-1 proteins, twelve concentrations from 200 nM, 2 hours at room temperature, read-out: FRET assay (IC50). The method, boiled down:
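HTRF read-out at 665/620 nm after 2 h at room temperature. Detection used anti-Tag1 Eu cryptate plus anti-Tag2 XL665 antibodies. Tagged PD-L1 and PD-1 proteins were pre-mixed with compound across twelve […] 1:2 dilutions starting at 200 nM.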
(TR-FRET usually uses a lanthanide donor and a delayed reading to cut background.)

Chain of PD-1/PD-L1 (Q9NZQ7 19-238 limits assumed): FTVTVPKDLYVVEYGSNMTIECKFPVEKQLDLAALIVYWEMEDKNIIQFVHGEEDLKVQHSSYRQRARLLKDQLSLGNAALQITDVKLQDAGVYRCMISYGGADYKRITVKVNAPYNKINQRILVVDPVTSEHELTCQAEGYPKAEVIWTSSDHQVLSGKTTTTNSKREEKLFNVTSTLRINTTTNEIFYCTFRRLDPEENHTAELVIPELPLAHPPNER

For the molecule `COc1cc(-c2cccc(-c3cccc(NC(=O)c4cc5n(n4)CCCC5NCCO)c3Cl)c2Cl)cc(F)c1CN1CC[C@@H](O)C1` (stereo partly drawn) [Compound 122, N-(2,2'-dichloro-3"-fluoro-4"-(((R)-3-hydroxypyrrolidin-1-yl)methyl)-5"-methoxy-[1,1':3',1"-terphenyl]-3-yl)-4-((2-hydroxyethyl)amino)-4,5,6,7-tetrahydropyrazolo[1,5-a]pyridine-2-carboxamide], the IC50 was less than 0.01 µM. In the case of `COc1cc(-c2cccc(-c3cccc(NC(=O)c4cc5n(n4)CCCC5N4CC[C@@H](O)C4)c3Cl)c2Cl)cc(F)c1CN1CC[C@@H](O)C1` (stereo partly drawn) [Compound 123, N-(2,2'-dichloro-3"-fluoro-4"-(((R)-3-hydroxypyrrolidin-1-yl)methyl)-5"-methoxy-[1,1':3',1 "-terphenyl]-3-yl)-4-((R)-3-hydroxypyrrolidin-1-yl)-4,5,6,7-tetrahydropyrazolo[1,5-a]pyridine-2-carboxamide], the concentration for half-maximal inhibition (IC50) was less than 0.01 µM. Take `COc1cc(-c2cccc(-c3cccc(NC(=O)c4cc5n(n4)CCCC5NCCO)c3Cl)c2Cl)cc(F)c1CNCCO` (stereo not shown) [Compound 124, N-(2,2'-dichloro-3"-fluoro-4"-(((2-hydroxyethyl)amino)methyl)-5"-methoxy-[1,1':3',1"-terphenyl]-3-yl)-4-((2-hydroxyethyl)amino)-4,5,6,7-tetrahydropyrazolo[1,5-a]pyridine-2-carboxamide]: the concentration for half-maximal inhibition (IC50) is less than 0.01 µM. Regarding `COc1cc(-c2cccc(-c3cccc(NC(=O)c4cc5n(n4)CCCC5N4CC[C@@H](O)C4)c3Cl)c2Cl)cc(F)c1CNCCO` (stereo partly drawn) [Compound 125, N-(2,2'-dichloro-3"-fluoro-4"-(((2-hydroxyethyl)amino)methyl)-5"-methoxy-[1,1':3',1"-terphenyl]-3-yl)-4-((R)-3-hydroxypyrrolidin-1-yl)-4,5,6,7-tetrahydropyrazolo[1,5-a]pyridine-2-carboxamide], the 50% inhibitory concentration (IC50) is less than 0.01 µM. `COc1cc(-c2cccc(-c3cccc(NC(=O)c4cc5n(n4)CCCC5NCCO)c3Cl)c2Cl)cc(F)c1CNC[C@@H]1CCC(=O)N1` (stereo partly drawn) [Compound 126, N-(2,2'-dichloro-3"-fluoro-5"-methoxy-4"-(((((S)-5-oxopyrrolidin-2-yl)methyl)amino)methyl)-[1,1':3',1"-terphenyl]-3-yl)-4-((2-hydroxyethyl)amino)-4,5,6,7-tetrahydropyrazolo[1,5-a]pyridine-2-carboxamide]: the IC50 is 0.01 to 0.1 µM.

Take `COc1cc(-c2cccc(-c3cccc(NC(=O)c4cc5n(n4)CCCC5N4CC[C@@H](O)C4)c3Cl)c2Cl)cc(F)c1CNC[C@@H]1CCC(=O)N1` (stereo partly drawn) [Compound 127, N-(2,2'-dichloro-3"-fluoro-5"-methoxy-4"-(((((S)-5-oxopyrrolidin-2-yl)methyl)amino)methyl)-[1,1':3',1"-terphenyl]-3-yl)-4-((R)-3-hydroxypyrrolidin-1-yl)-4,5,6,7-tetrahydropyrazolo[1,5-a]pyridine-2-carboxamide]: the concentration for half-maximal inhibition (IC50) is 0.01 to 0.1 µM.

For `COc1cc(-c2cccc(-c3cccc(NC(=O)c4cc5n(n4)CCCC5N4CC[C@@H](O)C4)c3Cl)c2Cl)cc(F)c1CNC(C)(C)C(=O)O` (stereo partly drawn) [Compound 128, 2-(((2',2"-dichloro-3-fluoro-3"-(4-((R)-3-hydroxypyrrolidin-1-yl)-4,5,6,7-tetrahydropyrazolo[1,5-a]pyridine-2-carboxamido)-5-methoxy-[1,1':3',1"-terphenyl]-4-yl)methyl)amino)-2-methylpropanoic acid], the IC50 was less than 0.01 µM. For `Cc1c(NC(=O)c2cc3n(n2)CCCC3O)cccc1-c1cccc(Nc2nc(C(F)F)nc3cc(CN4CC[C@@H](O)C4)cnc23)c1C` (stereo partly drawn) [Compound 129, N-(3'-((2-(difluoromethyl)-7-(((R)-3-hydroxypyrrolidin-1-yl)methyl)pyrido[3,2-d]pyrimidin-4-yl)amino)-2,2'-dimethyl-[1,1'-biphenyl]-3-yl)-4-hydroxy-4,5,6,7-tetrahydropyrazolo[1,5-a]pyridine-2-carboxamide], the 50% inhibitory concentration (IC50) was less than 0.01 µM. Under `CC(=O)NCCNC1CCCn2nc(C(=O)Nc3cccc(-c4cccc(Nc5nc(C(F)F)nc6cc(CN7CC[C@@H](O)C7)cnc56)c4C)c3C)cc21` (stereo partly drawn) [Compound 130, 4-((2-acetamidoethyl)amino)-N-(3'-((2-(difluoromethyl)-7-(((R)-3-hydroxypyrrolidin-1-yl)methyl)pyrido[3,2-d]pyrimidin-4-yl)amino)-2,2'-dimethyl-[1,1'-biphenyl]-3-yl)-4,5,6,7-tetrahydropyrazolo[1,5-a]pyridine-2-carboxamide] stands 0.01 to 0.1 µM. On to `Cc1c(NC(=O)c2cc3n(n2)CCCC3N2CC[C@@H](O)C2)cccc1-c1cccc(Nc2nc(C(F)F)nc3cc(CN4CC[C@@H](O)C4)cnc23)c1C` (stereo partly drawn) [Compound 131, N-(3'-((2-(difluoromethyl)-7-(((R)-3-hydroxypyrrolidin-1-yl)methyl)pyrido[3,2-d]pyrimidin-4-yl)amino)-2,2'-dimethyl-[1,1'-biphenyl]-3-yl)-4-((R)-3-hydroxypyrrolidin-1-yl)-4,5,6,7-tetrahydropyrazolo[1,5-a]pyridine-2-carboxamide], for which the IC50 was less than 0.01 µM. In the case of `Cc1c(NC(=O)c2cc3n(n2)CCCC3NCCO)cccc1-c1cccc(Nc2nc(C(F)F)nc3cc(CN4CC[C@@H](O)C4)cnc23)c1C` (stereo partly drawn) [Compound 132, N-(3'-((2-(difluoromethyl)-7-(((R)-3-hydroxypyrrolidin-1-yl)methyl)pyrido[3,2-d]pyrimidin-4-yl)amino)-2,2'-dimethyl-[1,1'-biphenyl]-3-yl)-4-((2-hydroxyethyl)amino)-4,5,6,7-tetrahydropyrazolo[1,5-a]pyridine-2-carboxamide], the half-inhibitory concentration (IC50) is less than 0.01 µM. Consider `Cc1c(NC(=O)c2cc3n(n2)CCCC3N2CC[C@@H](C(=O)O)C2)cccc1-c1cccc(Nc2nc(C(F)F)nc3cc(CN4CC[C@@H](O)C4)cnc23)c1C` (stereo partly drawn) [Compound 133, (3R)-1-(2-((3'-((2-(difluoromethyl)-7-(((R)-3-hydroxypyrrolidin-1-yl)methyl)pyrido[3,2-d]pyrimidin-4-yl)amino)-2,2'-dimethyl-[1,1'-biphenyl]-3-yl)carbamoyl)-4,5,6,7-tetrahydropyrazolo[1,5-a]pyridin-4-yl)pyrrolidine-3-carboxylic acid], for which the IC50 is less than 0.01 µM.

In the case of `Cc1c(NC(=O)c2cc3n(n2)CCCC3NCC(=O)O)cccc1-c1cccc(Nc2nc(C(F)F)nc3cc(CN4CC[C@@H](O)C4)cnc23)c1C` (stereo partly drawn) [Compound 134, 2-((2-((3'-((2-(difluoromethyl)-7-(((R)-3-hydroxypyrrolidin-1-yl)methyl)pyrido[3,2-d]pyrimidin-4-yl)amino)-2,2'-dimethyl-[1,1'-biphenyl]-3-yl)carbamoyl)-4,5,6,7-tetrahydropyrazolo[1,5-a]pyridin-4-yl)amino)acetic acid], the half-inhibitory concentration (IC50) was in the range of 0.01 to 0.1 µM.

For `Cc1c(NC(=O)c2cc3n(n2)CCCC3N2CCC(O)CC2)cccc1-c1cccc(Nc2nc(C(F)F)nc3cc(CN4CC[C@@H](O)C4)cnc23)c1C` (stereo partly drawn) [Compound 135, N-(3'-((2-(difluoromethyl)-7-(((R)-3-hydroxypyrrolidin-1-yl)methyl)pyrido[3,2-d]pyrimidin-4-yl)amino)-2,2'-dimethyl-[1,1'-biphenyl]-3-yl)-4-(4-hydroxypiperidin-1-yl)-4,5,6,7-tetrahydropyrazolo[1,5-a]pyridine-2-carboxamide], the IC50 was in the range of 0.01 to 0.1 µM. Turning to `Cc1c(NC(=O)c2cc3n(n2)CCCC3N2CCC(C(=O)O)CC2)cccc1-c1cccc(Nc2nc(C(F)F)nc3cc(CN4CC[C@@H](O)C4)cnc23)c1C` (stereo partly drawn) [Compound 136, 1-(2-((3'-((2-(difluoromethyl)-7-(((R)-3-hydroxypyrrolidin-1-yl)methyl)pyrido[3,2-d]pyrimidin-4-yl)amino)-2,2'-dimethyl-[1,1'-biphenyl]-3-yl)carbamoyl)-4,5,6,7-tetrahydropyrazolo[1,5-a]pyridin-4-yl)piperidine-4-carboxylic acid], the 50% inhibitory concentration (IC50) was less than 0.01 µM. Regarding `Cc1c(NC(=O)c2cc3n(n2)CCCC3NC(C)(C)C(=O)O)cccc1-c1cccc(Nc2nc(C(F)F)nc3cc(CN4CC[C@@H](O)C4)cnc23)c1C` (stereo partly drawn) [Compound 137, 2-((2-((3'-((2-(difluoromethyl)-7-(((R)-3-hydroxypyrrolidin-1-yl)methyl)pyrido[3,2-d]pyrimidin-4-yl)amino)-2,2'-dimethyl-[1,1'-biphenyl]-3-yl)carbamoyl)-4,5,6,7-tetrahydropyrazolo[1,5-a]pyridin-4-yl)amino)-2-methylpropanoic acid], the IC50 was less than 0.01 µM.

For `O=C(Nc1cccc(-c2cccc(Nc3nc(C(F)F)nc4cc(CN5CC[C@@H](O)C5)cnc34)c2Cl)c1Cl)c1cc2n(n1)CCCC2O` (stereo partly drawn) [Compound 138, N-(2,2'-dichloro-3'-((2-(difluoromethyl)-7-(((R)-3-hydroxypyrrolidin-1-yl)methyl)pyrido[3,2-d]pyrimidin-4-yl)amino)-[1,1'-biphenyl]-3-yl)-4-hydroxy-4,5,6,7-tetrahydropyrazolo[1,5-a]pyridine-2-carboxamide], the IC50 was 0.01 to 0.1 µM. With `CC(=O)NCCNC1CCCn2nc(C(=O)Nc3cccc(-c4cccc(Nc5nc(C(F)F)nc6cc(CN7CC[C@@H](O)C7)cnc56)c4Cl)c3Cl)cc21` (stereo partly drawn) [Compound 139, 4-((2-acetamidoethyl)amino)-N-(2,2'-dichloro-3'-((2-(difluoromethyl)-7-(((R)-3-hydroxypyrrolidin-1-yl)methyl)pyrido[3,2-d]pyrimidin-4-yl)amino)-[1,1'-biphenyl]-3-yl)-4,5,6,7-tetrahydropyrazolo[1,5-a]pyridine-2-carboxamide] the figure was 0.01 to 0.1 µM; with `O=C(Nc1cccc(-c2cccc(Nc3nc(C(F)F)nc4cc(CN5CC[C@@H](O)C5)cnc34)c2Cl)c1Cl)c1cc2n(n1)CCCC2N1CC[C@@H](O)C1` (stereo partly drawn) [Compound 140, N-(2,2'-dichloro-3'-((2-(difluoromethyl)-7-(((R)-3-hydroxypyrrolidin-1-yl)methyl)pyrido[3,2-d]pyrimidin-4-yl)amino)-[1,1'-biphenyl]-3-yl)-4-((R)-3-hydroxypyrrolidin-1-yl)-4,5,6,7-tetrahydropyrazolo[1,5-a]pyridine-2-carboxamide], 0.01 to 0.1 µM.

Values taken from patent publication EP4755888A1 (ILAb Co., Ltd., priority 2023, dated 2025).
